The target of the test is T1, Complement factor B [470-764] (UniProt P00751).
T1 construct: 470-764
Nature of the test: Factor B Binding Assay by TR-FRET. As to the method: Table 1: Factor B binding affinity of each compound tested was determined using a time-resolved fluorescence resonance energy transfer (TR-FRET) technology. 10 nM recombinant his-tagged Factor B catalytic domain, varying concentrations of inhibitors, 4 nM LANCE Eu-W1024 Anti-6×His Antibody and 100 nM TR-FRET_tool2 tracer was incubated in 1× Kinase Buffer A for 1 h. Measurement was performed in a reaction volume of 15 μL by adding 5 μL of the test compound, 5 μL of Factor B/antibody mixture and 5 μL of tracer into white opaque 384-well assay plates. The TR-FRET signal was read on a plate reader with an excitation wavelength of 340 nm and detection wavelengths of 615 and 665 nm.

T1 sequence (P00751 470-764): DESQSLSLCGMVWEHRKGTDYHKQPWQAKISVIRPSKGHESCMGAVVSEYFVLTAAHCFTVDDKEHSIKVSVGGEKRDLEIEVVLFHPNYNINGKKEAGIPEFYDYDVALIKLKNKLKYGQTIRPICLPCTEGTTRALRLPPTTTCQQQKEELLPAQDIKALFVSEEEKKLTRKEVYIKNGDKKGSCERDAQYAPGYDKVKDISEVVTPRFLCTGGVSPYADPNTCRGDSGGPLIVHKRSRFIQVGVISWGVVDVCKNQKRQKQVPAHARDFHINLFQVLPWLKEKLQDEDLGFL

For `COc1cc(C)c2[nH]ccc2c1CN1CC2CCC2C1c1ccc(C(=O)O)cc1` (stereo unspecified) [US20250243186, Example 22], the 50% inhibitory concentration (IC50) was determined as 45 nM.
